From PMC7571068, “Antiproliferative and Pro-Apoptotic Effect of Uvaol in Human Hepatocarcinoma HepG2 Cells by Affecting G0/G1 Cell Cycle Arrest, ROS Production and AKT/PI3K Signaling Pathway” (Molecules, 2020)
Converted amounts (≈) assume the structure as drawn.

How the values were obtained:
HepG2 cells [1] = assay: MTT cytotoxicity assay; type: cell-based, human; conditions: for IC20 / IC50 / IC80: Homo sapiens, mean ± SEM (n = 9)
Experimental: (§1) MTT assay was performed as described by Pérez-Jiménez et al.. Briefly, samples containing 200 µL cell suspension (1 × 10^4 cells/well) were cultured in 96 well plates, in triplicate of three populations of the both cell lines. Subsequent to adherence of the cells within 12 h of incubation, Uvaol was added to the wells at a concentration between 0–140 μg/mL and maintained during 24, 48 and 72 h. MTT was dissolved in the medium and added to the wells at a final concentration of 0.5 mg/mL. Following 2 h of incubation, the generated formazan was dissolved in DMSO. Absorbance was measured at 570 nm in a multiplate reader (Bio-tek®, Winooski, VT, USA). The concentrations that caused 20%, 50% and 80% of inhibition of cell viability (IC20, IC50 and IC80) were calculated following the formula: % […] = (A0 − AT)/A0·100, where A0 is the control absorbance (100% of cell viability) and AT is de absorbance of the incubated cells with the different concentrations of uvaol. OriginPro 8 (OriginLab Corporation, Northampton, MA, USA) was used to performance a dose-response analysis by the following formula: y=A1+ A2− A1/1+10^(Log x0−x)p
(§2) In which Logx0 is the center of the curve, p the slope, A1 the lower asymptote and A2 the upper asymptote in the adjustment model described.

MDA-MB-231 line = test system: MDA-MB-231 line; parameters: method as in PMID 25412049; conditions: cited from earlier work
MCF-7 line = test system: MCF-7 line; parameters: method as in PMID 21142067; conditions: MCF-7, 44.27 μg/mL, same phase = G0/G1; cited from earlier work
[2] = test system: MDA-MB-231 (triple negative breast cancer); parameters: method as in PMID 21142067; conditions: MDA-MB-231, 10 and 100 µM; cited from earlier work
WRL68 cells [3] = assay: Muse Annexin V & Dead Cell apoptosis assay; type: cell-based, human; conditions: WRL68, uvaol IC50, 24 h
Experimental: (§3) A total of 1.5 × 10^5 cells were seeded per well in 24-well plates for each cell line (quadruplicates for three different populations of each cell line). […] Negative control populations were incubated only with the appropriate culture medium. The samples were analyzed in the Muse^TM Cell Analyzer (Merck-Millipore®, Burlington, MA, USA). Phosphatidylserine (PS) is a phospholipid that is usually found in the inner half of the cytoplasmic membrane, but is outsourced when loss of integrity occurs in the apoptosis process. The method is based on the recognition and binding to the PS exposed by annexin V protein, labeled with a fluorescent substance to detect the interaction and quantify it. We used the Muse^TM Annexin V & Dead Cell kit purchased from Millipore (Billerica, MA, USA), which provides the percentage of viable cells, apoptotic and affected by necrosis.

HepG2 cells [4] = assay: Muse Annexin V & Dead Cell apoptosis assay; type: cell-based, human; conditions: HepG2, uvaol IC50, 24 h
Experimental: as §3

lymphoma cells (U937) = test system: lymphoma cells (U937); parameters: method as in PMID 21142067; conditions: U937, 10 and 100 µM; cited from earlier work
WRL68 cells [5] = assay: Muse Oxidative Stress kit, ROS production; type: cell-based, human; conditions: WRL68, IC50, 24 h
Experimental: (§4) A total of 1.5 × 10^5 cells were seeded per well in 24-well plates for each cell line (quadruplicates for three different populations of each cell line). […] Negative control populations were incubated only with the appropriate culture medium. The samples were analyzed in the Muse^TM Cell Analyzer (Merck-Millipore®, Burlington, MA, USA). The method is based on the use of dihydroetide (DHE), a reagent capable of crossing the cell membrane and interacting with superoxide anions, a type of ROS. In this process, DHE oxidizes and forms the DNA intercalating agent ethidium bromide, detectable by its fluorescence emission. […] The Muse^TM Oxidative Stress kit purchased from Millipore (Billerica, MA, USA) was used for this purpose.

HepG2 cells [6] = assay: Muse Oxidative Stress kit, ROS production; type: cell-based, human; conditions: HepG2, IC50, 24 h
Experimental: as §4

WRL68 cells [7] = assay: MTT cytotoxicity assay; type: cell-based; conditions: Homo sapiens, mean ± SEM (n = 9)
Experimental: as §1, §2

Structure (SMILES): C[C@H]1[C@H](C)CC[C@]2(CO)CC[C@]3(C)C(=CC[C@@H]4[C@@]5(C)CC[C@H](O)C(C)(C)[C@@H]5CC[C@]43C)[C@H]12 [uvaol, urs-12-ene-3,28-diol]
- IC50 in control cells (WRL68) relative to tumor cells (HepG2) (HepG2 cells [1]; 24 h IC50 WRL68 vs HepG2): more than twice
- IC20 (HepG2 cells [1]; HepG2, 24 h exposure): 8.2 ± 1.8 µg/mL (≈ 18.5 µM)
- IC50 (HepG2 cells [1]; HepG2, 24 h exposure): 25.2 µg/mL (≈ 56.9 µM)
- IC20 (HepG2 cells [1]; HepG2, 48 h exposure): 6.4 ± 0.4 µg/mL (≈ 14.5 µM)
- IC50 (HepG2 cells [1]; HepG2, 48 h exposure): 20 ± 0.3 µg/mL (≈ 45.2 µM)
- IC80 (HepG2 cells [1]; HepG2, 48 h exposure): 61.7 ± 5.3 µg/mL (≈ 139 µM)
- IC20 (HepG2 cells [1]; HepG2, 72 h exposure): 4 ± 0.2 µg/mL (≈ 9.03 µM)
- IC50 (HepG2 cells [1]; HepG2, 72 h exposure): 14.1 ± 1 µg/mL (≈ 31.8 µM)
- IC80 (HepG2 cells [1]; HepG2, 72 h exposure): 39.2 ± 2.4 µg/mL (≈ 88.5 µM)
- changes in cell cycle progression (MDA-MB-231 line): did not produce changes in the progression of the cycle
- cell cycle arrest (MCF-7 line): arrest in the same phase of the cycle
- induction of apoptosis [2]: did not show this effect
- change in number of apoptotic and necrotic cells vs control (WRL68 cells [3]): equally significant increase
- change in number of viable cells vs control (WRL68 cells [3]): significant decrease
- change in percentage of viable cells vs control (HepG2 cells [4]): significant reduction
- change in proportion of apoptotic cells vs control (HepG2 cells [4]): increasing the proportion of apoptotic cells
- induction of apoptosis (lymphoma cells (U937)): induced apoptosis
- change in ROS levels vs control (WRL68 cells [5]): without significant differences
- change in percentage of cells expressing ROS vs control (HepG2 cells [6]): significant decrease
- IC20 (WRL68 cells [7]; WRL68, 24 h exposure): 27.6 ± 2.9 µg/mL (≈ 62.3 µM)
- IC50 (WRL68 cells [7]; WRL68, 24 h exposure): 54.3 µg/mL (≈ 123 µM)
- IC20 (WRL68 cells [7]; WRL68, 48 h exposure): 13.3 ± 0.8 µg/mL (≈ 30 µM)
- IC50 (WRL68 cells [7]; WRL68, 48 h exposure): 35.9 ± 0.7 µg/mL (≈ 81.1 µM)
- IC80 (WRL68 cells [7]; WRL68, 48 h exposure): 79.8 ± 0.6 µg/mL (≈ 180 µM)
- IC20 (WRL68 cells [7]; WRL68, 72 h exposure): 6.8 ± 0.6 µg/mL (≈ 15.4 µM)
- IC50 (WRL68 cells [7]; WRL68, 72 h exposure): 19.5 ± 1.1 µg/mL (≈ 44 µM)
- IC80 (WRL68 cells [7]; WRL68, 72 h exposure): 47.2 ± 4.3 µg/mL (≈ 107 µM)
